Results on two molecules are retold here after patent EP4574152A1, “POTASSIUM CHANNEL ACTIVATORS FOR USE IN THE TREATMENT OF EPILEPTIC DISORDERS” (Fraunhofer-Gesellschaft zur Förderung der angewandten …, priority 2023, dated 2025).

For one assay, the system named is PTZ-induced seizures. Briefly: PTZ-induced seizures in mice. The assay is classed as in vivo, C57BL/6J mice. The conditions noted are these: for ED50: Mus musculus, ip; for ED50 Values (mg/Kg) Clonus / ED50 Values (mg/Kg) Tonus: i.p. The protocol: (§1) JNJ-37822681 was tested in two animal models of acute seizures widely used for the evaluation of new ASMs: 1. a mouse model of generalized myoclonic seizures such as acute exposure to the GABAA receptor antagonist pentylenetetrazol (PTZ); 2. audiogenic seizures induced in genetically epilepsy-prone DBA/2 mice.
(§2) In both animal models, retigabine or JNJ-37822681 were administered i.p, 30 minutes before seizures induction with PTZ or sounds.

A further assay deals with audiogenic seizures. Briefly: audiogenic seizures in DBA/2 mice. The conditions noted are these: limits in brackets; for ED50: Mus musculus, ip; for ED50 Values (mg/Kg) Clonus / ED50 Values (mg/Kg) Tonus / ED50 Values (mg/Kg) Wild Running: i.p. Type of assay: in vivo. The procedure: as §1, §2
Assay [1] addresses T1, Kv7.2 channels carrying the W236L mutation (Homo sapiens, UniProt O43526, W236L).
T1 construct: expressed in transfected cells
Nature of the assay: patch-clamp on homomeric Kv7.2 channels carrying the W236L mutation. The assay is classed as cell-based. Particulars: 10 µM. For orientation: The patch-clamp technique gives a direct electrical read-out from membranes.

The target in assay [2] is T2, Kv7.3 A315T (Homo sapiens, UniProt O43525, A315T).
T2 construct: expressed in transfected cells; host or cells: CHO, transient
Nature of the assay: fluorescence-based thallium flux assay (FluxOR) in CHO cells stably transfected with Kv7.3 A315T. The assay is classed as cell-based. The conditions noted are these: for maximum activities: relative to retigabine. The source says:
The Fraunhofer repurposing library was initially screened in a cellular model represented by Chinese hamster ovary cells (CHO) stably transfected with a variant of the Kv7.3 channel (carrying the mutation A315T to enhance current size and increase the signal-to-noise ratio). The Kv7.3 A315T cell line was used in a fluorescence-based thallium flux assay (FluxOR, Thermofisher) optimized as a read-out for Kv7 channel function, using retigabine as a positive control.
Compounds in the Fraunhofer repurposing library were tested in Kv7.3 A315T-expressing cells at 10 µM and their Kv7 opening effect was compared to that observed with 10 µM retigabine.

Assay [3] concerns the target T2, Kv7.3 A315T. Briefly: whole-cell patch-clamp in CHO cells transiently transfected with Kv7.3 A315T cDNA. Type of assay: cell-based. The protocol: (§3) JNJ-37822681 efficacy in opening Kv7 channels was further investigated through the whole-cell patch-clamp electrophysiological technique, the gold standard technique for investigating ion channels activity and pharmacological modulation.
In order to better evaluate the quantitative differences occurring in Kv7-opening ability between retigabine, and JNJ-37822681, dose-response experiments (0.01-30 µM) were performed to calculate EC50s using the functional parameters of ΔV1/2 (Figure 1C).

Another assay deals with T3, Kv7.2+Kv7.3 channels (Homo sapiens, UniProt O43525+O43526).
T3 construct: expressed in transfected cells; host or cells: CHO
Nature of the assay: whole-cell patch-clamp in CHO cells expressing Kv7.2+Kv7.3 channels. Type of assay: cell-based. Particulars: calculated from dose-response curves, Kv7.2/7.3 currents.
From the text: as §3

Where [4] appears, read: 30 minutes before seizures induction with PTZ, limits in brackets.
Where [5] appears, read: 30 minutes before seizures induction with sounds.

Where two headings read alike, the source gives them in different places.

By EC50 is commonly meant the concentration that produces a half-maximal response. Turning to `Fc1ccc(CN2CCC(Nc3ccc(C(F)(F)F)nn3)CC2)cc1F` [JNJ-37822681, N-[1-[(3,4-difluorophenyl)methyl]-4-piperidinyl]-6-(trifluoromethyl)-3-pyridazinamine], the ED50 in the assay on PTZ-induced seizures (30 minutes before seizures induction with PTZ, limits in brackets, read-out: ED50 Values (mg/Kg) Clonus) worked out at 15 mg/kg; in the assay with PTZ-induced seizures (30 minutes before seizures induction with PTZ, limits in brackets, read-out: ED50 Values (mg/Kg) Tonus), 9 mg/kg; in the assay on audiogenic seizures (30 minutes before seizures induction with sounds, read-out: ED50 Values (mg/Kg) Clonus) it was 6 mg/kg; in the assay with audiogenic seizures (30 minutes before seizures induction with sounds, read-out: ED50 Values (mg/Kg) Tonus), 3 mg/kg; with audiogenic seizures (30 minutes before seizures induction with sounds, read-out: ED50 Values (mg/Kg) Wild Running) it was 11 mg/kg. Further, the “ED50 Values (mg/Kg) Clonus” value with PTZ-induced seizures (setting [4]) is recorded as 15 (12-18) mg/Kg; in the assay with audiogenic seizures (setting [5]), 6 (5-9) mg/Kg. Further, the entries for the “ED50 Values (mg/Kg) Tonus” value with PTZ-induced seizures (setting [4]) and with audiogenic seizures (setting [5]) were 9 (6-13) mg/Kg and 3 (2-5) mg/Kg, respectively. Moreover, the “ED50 Values (mg/Kg) Wild Running” value with audiogenic seizures (setting [5]) is 11 (8-13) mg/Kg. In addition, in assay [1], the “activation of Kv7.2 channels carrying the W236L mutation” value was “failed to activate”. The maximum activities on Kv7.3 A315T [2] (FluxOR assay) came to 83.8%. Besides, the 50% effective concentration (EC50) is 140 nM on Kv7.3 A315T [2] (FluxOR assay, ten-point dose-response curve from 0.5 nM to 10 µM, read-out: EC50); 2000 ± 30 nM at Kv7.3 A315T [3] (calculated from ΔV1/2, dose-response 0.01-30 µM, read-out: EC50); 1200 ± 300 nM on Kv7.2+Kv7.3 channels. Besides, the “maximal ΔV1/2” value at Kv7.3 A315T [3] (dose-response 0.01-30 µM) is given as 37.0±5.4 mV. Also, the “leftward shift of the channel voltage-dependence of activation (ΔV1/2)” value at Kv7.3 A315T [3] (perfusion with 1 µM) is “qualitatively similar effects”.

With `CCOC(=O)Nc1ccc(NCc2ccc(F)cc2)cc1N` [retigabine, reference compound], the ED50 in the assay with PTZ-induced seizures (read-out: ED50 Values (mg/Kg) Clonus) worked out at 13 mg/kg; in the assay on PTZ-induced seizures (read-out: ED50 Values (mg/Kg) Tonus), 9 mg/kg; in the assay on audiogenic seizures (read-out: ED50 Values (mg/Kg) Clonus, i.p., 30 minutes before seizures induction with sounds) it was 7 mg/kg; in the assay with audiogenic seizures (read-out: ED50 Values (mg/Kg) Tonus, i.p., 30 minutes before seizures induction with sounds) it was 4.6 mg/kg; in the assay with audiogenic seizures (read-out: ED50 Values (mg/Kg) Wild Running, i.p., 30 minutes before seizures induction with sounds), 12 mg/kg. Besides, the “ED50 Values (mg/Kg) Clonus” value is given as 13 (9.2-18.5) mg/Kg in the assay with PTZ-induced seizures (setting [4]) and 6.9 (4.3-11) mg/Kg with audiogenic seizures (setting [5]). Further, the “ED50 Values (mg/Kg) Tonus” value with PTZ-induced seizures (setting [4]) is 9 (7-12) mg/Kg; in the assay on audiogenic seizures (setting [5]), 4.6 (3.6-6) mg/Kg. Further, the “ED50 Values (mg/Kg) Wild Running” value with audiogenic seizures (setting [5]) was 12.4 (9-17.3) mg/Kg. Besides, the EC50 on Kv7.3 A315T [2] is 300 nM; on Kv7.3 A315T [3] it was 600 ± 100 nM. In addition, the maximum activities at Kv7.3 A315T [2] (FluxOR assay) is 100%.
